From patent publication US11236084B2, “Substituted azaindoline derivatives as NIK inhibitors” (Janssen Pharmaceutica NV, priority 2017, dated 2022)
Like-named read-outs stand apart in the source and are kept apart here.

What was measured:
[1] = tested on: P-IKKα levels in L363 (NIK translocated multiple myeloma) cells; experiment: Biological Assay C: effect of compounds on P-IKKα levels in L363 (NIK translocated multiple myeloma) cells, performed at 2 locations; assay type: cell-based, human; settings: L363 cells, P-IKKα levels, averaged values
Procedure: Effect of Compounds on P-IKKα Levels in L363 (NIK Translocated Multiple Myeloma) Cells
All compounds tested were dissolved in DMSO and further dilutions were made in culture medium. Final DMSO concentration was 1% (v/v) in cell assays. The human L363 cells (ATCC) were cultured in RPMI 1640 medium supplemented with GlutaMax and 10% fetal calf serum (PAA). Cells were routinely maintained at densities of 0.2×10^6 cells per ml-1×10^6 cells per ml at 37° C. in a humidified 5% CO2 atmosphere. Cells were passaged twice a week splitting back to obtain the low density. Cells were seeded in 96 well plates (Nunc 167008) at 2×10^6 per ml media in a volume of 75 μl per well plus 25 μl […] recombinant human B-cell activating factor (BAFF/BLyS/TNFSF13B). Seeded cells were incubated at 37° C. in a humidified 5% CO2 atmosphere for 24 hr. Drugs and/or solvents were added (20 μl) to a final volume of 120 μl. Following 2 hr treatment plates were removed from the incubator and cell lysis was achieved by the addition of 30 μl 5× lysis buffer followed by shaking on a plate shaker at 4° C. for 10 min. At the end of this incubation lysed cells were centrifuged at 800×g for 20 min at 4° C. and the lysate was assessed for P-IKKα levels by sandwich immuno-assay carried out in anti-rabbit antibody coated Mesoscale plates. Within an experiment, the results for each treatment were the mean of 2 replicate wells. For initial screening purposes, compounds were tested using an 8 point dilution curve (serial 1:3 dilutions). For each experiment, controls (containing MG132 and BAFF but no test drug) and a blank incubation (containing MG132 and BAFF and 1 μM ADS125117, a test concentration known to give full inhibition) were run in parallel. The blank incubation value was subtracted from all control and sample values. To determine the IC50 a sigmoidal curve was fitted to the plot of % inhibition of control P-IKKα levels versus Log10 compound concentration.
Assay C was performed at 2 different locations.
(§1) Data for the compounds of the invention in the above assays are provided in Table A (the values in Table are averaged values over all measurements on all batches of a compound; values as IC50 (nM)). (‘n.c.’ means not calculated: ‘Co.’ means compound)

[2] = target: T1, recombinant human NF-kappaB-inducing kinase (NIK/MAP3K14) (Homo sapiens, UniProt Q99558); experiment: Biological Assay A: inhibition of recombinant human NF-kappaB-inducing kinase (NIK/MAP3K14) activity (MBP phosphorylation, Mesoscale); settings: MSD MBP; averaged over all measurements on all batches; read-out: Assay A Biochemical (MSD MBP) IC50
T1 sequence (Q99558 whole entry): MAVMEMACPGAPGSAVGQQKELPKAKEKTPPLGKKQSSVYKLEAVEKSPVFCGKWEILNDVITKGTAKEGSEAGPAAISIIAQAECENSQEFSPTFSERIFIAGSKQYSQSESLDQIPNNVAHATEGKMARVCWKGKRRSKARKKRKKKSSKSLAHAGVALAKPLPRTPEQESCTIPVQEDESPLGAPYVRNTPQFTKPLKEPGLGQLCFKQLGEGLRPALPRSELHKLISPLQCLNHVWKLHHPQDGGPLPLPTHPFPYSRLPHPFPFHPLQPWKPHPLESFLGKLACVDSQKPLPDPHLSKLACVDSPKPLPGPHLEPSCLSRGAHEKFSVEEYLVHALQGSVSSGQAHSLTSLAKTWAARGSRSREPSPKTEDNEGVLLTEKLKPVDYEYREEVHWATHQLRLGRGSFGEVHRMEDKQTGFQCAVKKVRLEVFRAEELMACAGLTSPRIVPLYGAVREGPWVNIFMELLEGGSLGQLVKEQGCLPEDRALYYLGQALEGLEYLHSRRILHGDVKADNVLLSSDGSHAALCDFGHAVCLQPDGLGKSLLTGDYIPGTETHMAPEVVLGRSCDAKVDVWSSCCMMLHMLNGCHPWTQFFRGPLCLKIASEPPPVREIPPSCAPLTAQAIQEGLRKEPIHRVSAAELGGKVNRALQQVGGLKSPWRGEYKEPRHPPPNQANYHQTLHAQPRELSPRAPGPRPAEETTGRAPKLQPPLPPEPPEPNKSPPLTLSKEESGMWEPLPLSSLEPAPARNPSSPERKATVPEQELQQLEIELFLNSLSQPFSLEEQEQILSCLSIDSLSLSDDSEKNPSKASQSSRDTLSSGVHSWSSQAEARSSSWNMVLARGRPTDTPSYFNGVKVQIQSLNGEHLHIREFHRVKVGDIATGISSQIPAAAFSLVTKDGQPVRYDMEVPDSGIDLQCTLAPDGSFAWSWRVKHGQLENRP
Procedure: Pharmacological Part Biological Assay A Inhibition of Recombinant Human NF-kappaB-Inducing Kinase (NIK/MAP3K14) Activity
Assay buffer was 50 mM Tris pH 7.5 containing 1 mM EGTA (ethylene glycol tetraacetic acid), 1 mM DTT (dithiothreitol), 0.1 mM Na3VO4, 5 mM MgCl2, 0.01% Tween® 20. Assays were carried out in 384 well Mesoscale high binding plates which had been coated with myelin basic protein (MBP) and blocked with bovine serum albumin to prevent non-specific protein binding. All compounds tested were dissolved in dimethyl sulfoxide (DMSO) and further dilutions were made in assay buffer. Final DMSO concentration was 1% (v/v) in assays. Incubations consisted of compound (1% DMSO in control and blank wells), 25 μM […] (ATP), and 10 nM NIK/MAP3K14 substituting enzyme with buffer in the blank wells. Incubations were carried out for 1 h at 25° C. and were followed by washing and sequential incubation with rabbit anti-phospho-MBP and anti-rabbit Ig Sulfotag antibody before reading bound Sulfotag on a Mesoscale Discovery. Signal obtained in the wells containing blank samples was subtracted from all other wells and […] were determined by fitting a sigmoidal curve to % inhibition of control versus Log10 compound concentration.
as §1

[3] = target: T1, recombinant human NF-kappaB-inducing kinase (NIK/MAP3K14); experiment: Biological Assay B: inhibition of auto-phosphorylation of recombinant human NIK/MAP3K14 (AlphaScreen), performed at 2 locations; assay type: biochemical; settings: AlphaScreen auto-phosphorylation, averaged values
Summary of the method: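 GST-tagged NIK (0.2 nM) auto-phosphorylation with 25 microM ATP in 50 mM Tris pH 7.5, 5 mM MgCl2, 1% DMSO, 1 h at 25° C. Anti-phospho-IKK Ser176/180 AlphaScreen readout; blank-subtracted IC50 from sigmoidal fit. Run at two sites.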

[4] = Homo sapiens, L-363, location 2, read-out: Assay C location 2 IC50
[5] = location 1, read-out: Assay B location 1 IC50
[6] = location 2, read-out: Assay B location 2 IC50
[7] = Homo sapiens, L-363, location 1, read-out: Assay C location 1 IC50

Row | Structure (SMILES) | IC50 [1, 4] | IC50 [2] | also measured
1 | COc1cc(Nc2nccc(-c3cnc4c(c3)C(C)(C)CN4)n2)c(C)c(C(=O)N2CCOCC2)c1 [Compound 108] | 102 nM | 15.1 nM | –
2 | Cc1cc(N2CCOCC2)ccc1Nc1nccc(-c2cnc3c(c2)C(C)(C)CN3)n1 [Compound 117] | > 10000 nM | 162 nM | –
3 | CC(=O)NCc1ccc(Nc2nccc(-c3cnc4c(c3)C(C)(C)CN4)n2)c(OC(F)(F)F)c1 [Compound 77] | 126 nM | 56.2 nM | –
4 | Cc1cc(C(=O)O)ccc1Nc1nccc(-c2cnc3c(c2)C(C)(C)CN3)n1 [Compound 97] | – | ~501 nM | IC50 [3, 5]: > 10000 nM
5 | CC(=O)NCc1ccc(Nc2nccc(-c3cnc4c(c3)C(C)(C)CN4)n2)c(Br)c1 [Compound 63] | 75.9 nM | 8.3 nM | –
6 | CC1(C)CNc2ncc(-c3ccnc(Nc4ccc(C(=O)N5CCC(C#N)CC5)cc4OC(F)F)n3)cc21 [Compound 128] | 191 nM | 7.9 nM | –
7 | CC(=O)NC(C)c1cccc(Nc2nccc(-c3cnc4c(c3)C(C)(C)CN4)n2)c1 (stereo not shown) [Compound 96] | ~6310 nM | 13.5 nM | –
8 | COc1c(Nc2nccc(-c3cnc4c(c3)C(C)(C)CN4)n2)cccc1C(=O)N1CCOCC1 [Compound 112] | – | 417 nM | –
9 | CN1CCC(NC(=O)c2ccc(Nc3nccc(-c4cnc5c(c4)C(C)(C)CN5)n3)c(Cl)c2)CC1 [Compound 103] | 3090 nM | 155 nM | –
10 | COc1ccc(C)c(Nc2nccc(-c3cnc4c(c3)C(C)(C)CN4)n2)c1CNC(C)=O [Compound 135] | – | > 10000 nM | –
11 | CC1(C)CNc2ncc(-c3ccnc(Nc4ccc(C(=O)NC5CCOCC5)cc4C(F)F)n3)cc21 [Compound 110] | 2340 nM | 129 nM | –
12 | Cc1c(CNC(=O)C(C)C)cccc1Nc1nccc(-c2cnc3c(c2)C(C)(C)CN3)n1 [Compound 65] | 617 nM | 24 nM | –
13 | COC1CCN(C(=O)c2ccc(Nc3nccc(-c4cnc5c(c4)C(C)(CO)CN5)n3)c(C)c2)CC1 (stereo not shown) [Compound 133] | – | 5.8 nM | IC50 ([1]; location 2, read-out: Assay C location 2 IC50): 129 nM
14 | COc1cc(Nc2nccc(-c3cnc4c(c3)C(C)(C)CN4)n2)c(C)c(C(=O)NC2CN(C)C2)c1 [Compound 51] | 112 nM | 6.9 nM | –
15 | Cc1cc(C(=O)N2CCC(C#N)CC2)ccc1Nc1nccc(-c2cnc3c(c2)C(C)(C)CN3)n1 [Compound 99] | 144 nM | 7.4 nM | –
16 | Cc1cc(C(=O)N2CCC(C(C)(C)O)CC2)ccc1Nc1nccc(-c2cnc3c(c2)C(C)(C)CN3)n1 [Compound 98] | 93.3 nM | 13.5 nM | –
17 | COCCNC(=O)c1cc(OC)cc(Nc2nccc(-c3cnc4c(c3)C(C)(C)CN4)n2)c1C [Compound 106] | 95.5 nM | 15.9 nM | –
18 | COc1cc(C#N)ccc1Nc1nccc(-c2cnc3c(c2)C(C)(C)CN3)n1 [Compound 116] | 3160 nM | 309 nM | –
19 | CCC(=O)NCc1cccc(Nc2nccc(-c3cnc4c(c3)C(C)(C)CN4)n2)c1C [Compound 64] | 407 nM | 13.5 nM | –
20 | Cc1cc(C(=O)NC2CCOCC2)ccc1Nc1nccc(-c2cnc3c(c2)C(C)(CCO)CN3)n1 (stereo not shown) [Compound 124] | 2750 nM | 7.8 nM | –
21 | COc1c(Nc2nccc(-c3cnc4c(c3)C(C)(C)CN4)n2)cccc1C(=O)N1CCC(O)CC1 [Compound 114] | > 10000 nM | 251 nM | –
22 | COc1cc(Nc2nccc(-c3cnc4c(c3)C(C)(C)CN4)n2)c(C)c(C(=O)N2CCC(O)CC2)c1 [Compound 107] | 72.4 nM | 13.5 nM | –

Row | Structure (SMILES) | IC50 [1, 4] | IC50 [2] | also measured
23 | COCC(=O)NCc1cccc(Nc2nccc(-c3cnc4c(c3)C(C)(C)CN4)n2)c1C [Compound 66] | 363 nM | 10.7 nM | –
24 | Cc1cc(C(=O)N2CC(C)(O)C2)ccc1Nc1nccc(-c2cnc3c(c2)C(C)(C)CN3)n1 [Compound 80] | 646 nM | 39.8 nM | –
25 | CC1(C)CNc2ncc(-c3ccnc(Nc4ccc(C(=O)NC5CCOCC5)cc4C(F)(F)F)n3)cc21 [Compound 94] | ~10000 nM | 347 nM | –
26 | COC1CCN(C(=O)c2ccc(Nc3nccc(-c4cnc5c(c4)C(C)(C)CN5)n3)c(OC(F)F)c2)CC1 [Compound 129] | 229 nM | 15.9 nM | –
27 | COc1ccc(S(C)(=O)=O)cc1Nc1nccc(-c2cnc3c(c2)C(C)(C)CN3)n1 [Compound 119] | 5500 nM | 295 nM | –
28 | Cc1cc(C(=O)N2CCC(CCO)CC2)ccc1Nc1nccc(-c2cnc3c(c2)C(C)(C)CN3)n1 [Compound 53] | 174 nM | 4.1 nM | –
29 | CC1(C)CNc2ncc(-c3ccnc(Nc4ccc(C(=O)NC5CCOCC5)cc4Cl)n3)cc21 [Compound 104] | 398 nM | 61.7 nM | –
30 | CC(=O)NCc1ccc(Nc2nccc(-c3cnc4c(c3)C(C)(C)CN4)n2)c(F)c1 [Compound 83] | 2690 nM | 35.5 nM | –
31 | COc1cc(Nc2nccc(-c3cnc4c(c3)C(C)(C)CN4)n2)c(C)c(C(=O)NC2CCOCC2)c1 [Compound 105] | 436 nM | 30.2 nM | –
32 | CC(=O)NCc1ccc(Nc2nccc(-c3cnc4c(c3)C(C)(C)CN4)n2)c(C(F)(F)F)c1 [Compound 67] | 1660 nM | 45.7 nM | –
33 | Cc1cc(C(=O)N2CCOCC2)ccc1Nc1nccc(-c2cnc3c(c2)C(C)(C)CN3)n1 [Compound 78] | > 10000 nM | 16.6 nM | –
34 | COc1cc(C(=O)N2CCCCCC2)ccc1Nc1nccc(-c2cnc3c(c2)C(C)(CO)CN3)n1 (stereo not shown) [Compound 141] | 148 nM | – | IC50 [3, 6]: 10.2 nM
35 | COc1cc(C(=O)N(C)C)ccc1Nc1nccc(-c2cnc3c(c2)C(C)(CO)CN3)n1 (stereo not shown) [Compound 153] | 427 nM | – | IC50 [3, 5]: 18.6 nM
36 | CC(=O)NCc1ccc(Nc2nccc(-c3cnc4c(c3)C(C)(C)CN4)n2)c(Cl)c1 [Compound 72] | 53.7 nM | 6.5 nM | –
37 | Cc1cc(C(=O)N2CCS(=O)(=O)CC2)ccc1Nc1nccc(-c2cnc3c(c2)C(C)(C)CN3)n1 [Compound 100] | 174 nM | 6.6 nM | –
38 | COc1cc(N2CCC(O)CC2)c(Cl)cc1Nc1nccc(-c2cnc3c(c2)C(C)(CO)CN3)n1 (stereo not shown) [Compound 301] | – | – | IC50 [3, 5]: 5.4 nM; IC50 [3, 6]: 1.1 nM; IC50 [1, 7]: 23.4 nM
39 | COCC(=O)NCc1ccc(Nc2nccc(-c3cnc4c(c3)C(C)(C)CN4)n2)c(C)c1 [Compound 76] | 182 nM | 13.5 nM | –
40 | COc1cc(C(=O)NC2CCOC2)ccc1Nc1nccc(-c2cnc3c(c2)C(C)(CO)CN3)n1 (stereo not shown) [Compound 137] | 347 nM | – | IC50 [3, 6]: 5 nM; IC50 [1, 7]: 339 nM
41 | COc1cc(N2CCN(C(C)C)CC2)c(Cl)cc1Nc1nccc(-c2cnc3c(c2)C(C)(CO)CN3)n1 (stereo not shown) [Compound 14] | – | – | IC50 [3, 5]: ~3 nM; IC50 [3, 6]: 0.9 nM; IC50 [1, 7]: 19.5 nM
42 | Cc1cc(C#N)ccc1Nc1nccc(-c2cnc3c(c2)C(C)(C)CN3)n1 [Compound 115] | – | 457 nM | –
43 | COc1cc(C(=O)N2CCC(OC)C2)ccc1Nc1nccc(-c2cnc3c(c2)C(C)(CO)CN3)n1 (stereo not shown) [Compound 136] | 229 nM | – | IC50 [3, 6]: 3.3 nM; IC50 [1, 7]: 355 nM
44 | COc1c(Nc2nccc(-c3cnc4c(c3)C(C)(C)CN4)n2)cccc1C(=O)NC1CCOCC1 [Compound 113] | – | 288 nM | –
